Measurements: patent US11975051B1, “Therapeutic peptides and uses thereof” (priority 2022, dated 2024)
“Also recorded” adds a separate entry of the source. Read-outs that look alike come from different tables or passages of the source. Where a SMILES comes first, the peptide text is derived from it. [ ]: non-standard residue; d: D form.

Tests used:
Mouse plasma stability = assay type: in vitro ADME; conditions: read-out: Mouse Plasma Stability t½
[1] = Mouse (liver) microsomal stability; assay type: in vitro ADME; conditions: for half-life: mouse, liver microsomes
Rat microsomal stability = assay type: in vitro ADME; conditions: rat microsomes
Dog microsomal stability = assay type: in vitro ADME; conditions: dog microsomes
[2] = Pharmacokinetics in mice dosed IV, SC and PO; assay type: in vivo, mouse; conditions: for half-life / bioavailability / AUC(0-inf) / Cmax: mouse, in vivo, mice
[3] = Pharmacokinetics in rat (IV, SC, PO); conditions: in vivo
[4] = Pharmacokinetics in dog (PO); conditions: in vivo, read-out: % F (PO)
[5] = test system: SOD1^G93A mouse model of ALS; assay: 6-week efficacy testing of TVALA in drinking water in the SOD1^G93A mouse model of ALS; assay type: in vivo
Description: A 6-week efficacy testing of test article, TVALA™, in daily drinking water, in the SOD1^G93A mouse model of ALS, with neurological scoring, neuroinflammation and axonopathy outcome measures was conducted by orally dosing with 3 mg/kg or 10 mg/kg. In phrenic nerves the axons numbers are not affected at this age, however axons start to atrophy, in femoral nerves, the mice lose axons and the remaining ones are atrophied.

[6] = test system: ALS patient derived adipose stem cells (ASCs); assay: Ionomycin-stressed ALS patient derived adipose stem cells, rescue by test compound (SeaHorse); assay type: cell-based, human
Description: Adipose stem cells (“ASCs”) derived from fat tissue harvested from an ALS patient were glycolytic showing increased proliferation and lipid accumulation in culture. An in vitro model of mitochondrial dysfunction was initiated with ALS patient derived ASCs grown in growth media. After cells were confluent, the growth media was treated with chemical stressors, such as ionomycin. Ionomycin induces cell death, apoptosis, peroxide formation, extracellular ATP, and peroxynitrites that are related to mitochondrial dysfunction. The media was exchanged and replaced with basic DMEM with 4 mM pyruvate and no additional growth factors. Test compounds were added in an effort to rescue the ionomycin treated cells. After recovery, 6 hours, the cells were measured for viability, apoptosis, peroxides, and peroxynitrites by SeaHorse analysis. The ASC patient derived cells are a good model to investigate dysregulated mitochondrial dysfunction in disease, these effects are not apparent in all ALS patient derived iPSC fibroblast cells (data not shown).

ALS patient-derived ASCs = assay: Stressed ALS patient-derived ASCs treated with peptides, SeaHorse analytics (Example 6); assay type: cell-based, human
Source text: ALS patient-derived ASCs showing hypermetabolism and lipid sequestration were stressed and treated with peptides (shown below, column 2) and effect of the peptide measured with SeaHorse analytics.

A-375 (Prdx6 KO) cells = assay: Erastin-induced ferroptotic cell death, viability; assay type: cell-based; conditions: pre-treatment followed by TVALA treatment; data not shown
Description: (§1) Melanoma cell lines A-375, A-375 non-target, and A-375 (Prdx6 KO) cells were pre-incubated with TVALA™, washed, and treated with Erastin. Following treatment, the cells were evaluated for viability. […] When the cells were pre-treated with TVALA™, washed, and incubated with TVALA™ followed by treatment with Erastin, the cells were protected against Erastin-induced cell death. When A-375 non target cells or A-375 knock out cells were used there was no effect of pre-treatment followed by TVALA™ treatment as expected (data not shown).

A-375 melanoma cells = assay: Erastin-induced ferroptotic cell death, viability; assay type: cell-based; conditions: washed
Description: as §1

A-375 non-target cells = assay: Erastin-induced ferroptotic cell death, viability; assay type: cell-based; conditions: pre-treatment followed by TVALA treatment; data not shown
Description: as §1

[7] = In vitro comparisons of Elamipretide triacetate and TVALA; conditions: data not shown
Description: TVALA™ may be steroid sparing in diseases that involve innate immunity and autoimmune components that are traditionally treated with steroids. For example, age-related macular degeneration is treated with steroid anti-inflammatory agents. TVALA™ is used as an adjunct to traditional therapies, decreasing or eliminating the need for steroids. Another example is for renal dialysis patients, for which TVALA™ is used as adjunctive or as a replacement to anti-inflammatory therapies. Elamipretide Triacetate is a small, mitochondrially-targeted d-tetrapeptide that is not entirely different from TVALA™, as both have two basic residues (Arg and Lys) and both have a d-Arg. Elamipretide triacetate appears to reduce the production of the toxic reactive oxygen species and stabilize cardiolipin to moderate mitochondrial disease.

CC(C)[C@@H](NC(=O)[C@H](N)Cc1ccc(O)cc1)C(=O)N[C@H](CC(=O)O)C(=O)N[C@H](CCCCN)C(=O)N[C@H](CCCNC(=N)N)C(=O)O [TVALA™, H-(D-Tyr)-(D-Val)-(D-Asp)-(D-Lys)-(D-Arg)-OH] (H-[dY][dV][dD][dK][dR]-OH)
half-life (Mouse plasma stability): > 120 min
stability in mouse liver microsomes, half-life ([1]; mouse liver microsomes, listed as SEQ ID NO:1): greater than 120 minutes
half-life ([1]; mouse liver microsomes, read-out: stability in mouse liver microsomes, half-life): > 120 min
half-life ([1]; mouse microsomes, read-out: Mouse Microsomal Stability t½): > 60 min
half-life (Rat microsomal stability): > 60 min
half-life (Dog microsomal stability): > 60 min
half-life ([2]; IV, read-out: IV t½, mice): 6.22 min
bioavailability ([2]; PO, read-out: PO % F, mice): 30%
AUC(0-inf) ([2]; PO, read-out: PO AUCinf): 2400 ng·h/mL
Cmax ([2]; PO, read-out: PO Cmax): 5290 ng/mL
half-life ([2]; PO, read-out: PO t½, mice): 7.36 min
bioavailability ([2]; SC, read-out: SC % F, mice): 52%
AUC(0-inf) ([2]; SC, read-out: SC AUCinf): 355 ng·h/mL
Cmax ([2]; SC, read-out: SC Cmax): 674 ng/mL
half-life ([2]; SC, read-out: SC t½, mice): 11.9 min
expected impact of the oral drug on the central nervous system ([2]; oral, based on in vivo testing (Table 4)): 5%
bioavailability ([3]; PO, read-out: % F (PO)): 6.7%
bioavailability ([3]; SC, read-out: % F (SC)): 79.2%
bioavailability [4]: 4.9%
neuroprotection on the phrenic and femoral motor axon sizes ([5]; 3 mg/kg dose): very discrete neuroprotection
effect on the neuroinflammatory marker GFAP (spinal cord) ([5]; 3 mg/kg orally compared with 10 mg/kg orally): more significant effects than 10 mg/kg orally
Femoral motor axon size ([5]; 3 mg/kg orally, SOD1^G93A hemizygous mice, vs vehicle/controls): axons of slightly larger size; also recorded: slightly larger femoral motor axons than vehicle treated mice
Phrenic nerve cross-section area (phrenic axon size) ([5]; 10 mg/kg orally, SOD1^G93A hemizygous mice, vs vehicle/control): smallest axons; also recorded: smaller phrenic axons than vehicle treated mice
brain inflammation ([5]; oral administration, data not shown): not impacted
comparison with TP-5 in ALS patient derived cells [6]: superior to TP-5
VEGFR2 expression ([6]; ALS patient derived cells): normalizes
peroxides ([6]; ALS-ASC cells in vitro): reduces
dysregulated mitochondrial energy metabolism ([6]; in vitro): rescues
extracellular ATP (eATP) ([6]; in vitro cultured ASCs from an ALS patient): decreased
effect of the peptide measured with SeaHorse analytics (ALS patient-derived ASCs): superior to the other compounds
effect on Erastin-induced cell death (A-375 (Prdx6 KO) cells): no effect
rescue against Erastin-induced cell death (viability) (A-375 melanoma cells; pre-incubated with peptide, treated with Erastin): did not rescue
protection against Erastin-induced cell death (viability) (A-375 melanoma cells; pre-treated, incubated with peptide, followed by Erastin): protected
effect on Erastin-induced cell death (A-375 non-target cells): no effect
immunomodulation compared with Elamipretide triacetate [7]: superior at immunomodulation
target receptors compared with Elamipretide triacetate [7]: more target receptors
